{
  "source": "patent US7772198B2",
  "about": "“CFTR channel modulators” (Centre National de la Recherche Scientifique, priority 2003, dated 2010)",
  "key": {"[1]": {"target": "wild-type CFTR protein (Calu-3 cells) (Homo sapiens, UniProt P13569)", "sequence (P13569 whole entry)": "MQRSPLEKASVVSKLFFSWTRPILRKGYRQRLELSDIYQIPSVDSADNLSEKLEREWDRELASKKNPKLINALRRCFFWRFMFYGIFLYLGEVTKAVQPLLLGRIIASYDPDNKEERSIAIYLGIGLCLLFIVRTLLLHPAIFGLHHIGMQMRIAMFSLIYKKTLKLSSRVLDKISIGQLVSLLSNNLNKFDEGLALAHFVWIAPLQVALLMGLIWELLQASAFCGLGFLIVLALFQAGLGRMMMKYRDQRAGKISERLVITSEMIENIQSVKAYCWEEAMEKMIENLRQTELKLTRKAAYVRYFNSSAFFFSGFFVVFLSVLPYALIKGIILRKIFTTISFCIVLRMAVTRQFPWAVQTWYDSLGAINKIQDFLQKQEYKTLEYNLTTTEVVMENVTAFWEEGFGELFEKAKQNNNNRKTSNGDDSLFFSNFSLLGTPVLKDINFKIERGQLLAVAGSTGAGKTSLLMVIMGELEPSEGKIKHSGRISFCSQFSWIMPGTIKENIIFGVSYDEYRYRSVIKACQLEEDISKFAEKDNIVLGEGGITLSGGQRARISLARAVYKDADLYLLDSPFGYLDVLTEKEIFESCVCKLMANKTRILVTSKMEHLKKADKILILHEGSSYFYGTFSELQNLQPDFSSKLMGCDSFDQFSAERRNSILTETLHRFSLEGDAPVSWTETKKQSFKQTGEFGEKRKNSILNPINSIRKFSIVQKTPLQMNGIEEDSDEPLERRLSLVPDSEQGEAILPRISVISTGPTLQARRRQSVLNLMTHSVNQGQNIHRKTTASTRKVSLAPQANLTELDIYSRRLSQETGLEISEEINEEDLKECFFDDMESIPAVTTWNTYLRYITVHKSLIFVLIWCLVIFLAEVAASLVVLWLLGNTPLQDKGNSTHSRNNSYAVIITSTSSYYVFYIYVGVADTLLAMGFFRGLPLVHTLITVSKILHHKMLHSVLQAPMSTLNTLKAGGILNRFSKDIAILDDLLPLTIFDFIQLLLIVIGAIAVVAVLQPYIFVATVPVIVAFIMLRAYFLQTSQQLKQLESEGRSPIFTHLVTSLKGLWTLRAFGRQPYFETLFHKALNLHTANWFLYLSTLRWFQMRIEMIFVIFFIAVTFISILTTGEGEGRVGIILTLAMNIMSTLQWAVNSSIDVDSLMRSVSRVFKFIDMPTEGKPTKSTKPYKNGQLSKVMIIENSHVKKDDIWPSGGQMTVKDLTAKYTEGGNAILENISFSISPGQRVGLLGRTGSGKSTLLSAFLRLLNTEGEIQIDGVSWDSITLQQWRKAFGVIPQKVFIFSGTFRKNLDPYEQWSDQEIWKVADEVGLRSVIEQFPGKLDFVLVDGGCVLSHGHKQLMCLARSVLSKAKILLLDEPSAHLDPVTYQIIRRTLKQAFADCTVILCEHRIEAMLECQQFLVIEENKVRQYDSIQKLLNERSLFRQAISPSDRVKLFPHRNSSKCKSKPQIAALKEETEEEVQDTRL", "assay": "iodide efflux, Calu-3 human lung cells naturally expressing wild-type CFTR"}, "[2]": {"target": "T1, wild-type CFTR receptor (CHO-WT cells) (Homo sapiens, UniProt P13569)", "T1 construct": "expressed in transfected cells; host or cells: CHO (Chinese Hamster Ovary) cells, stably transfected", "assay": "125I iodide efflux, CHO cells overexpressing wild-type CFTR (CHO-WT)", "assay_type": "cell-based", "details": "for IC50: 5 μM Fsk; for Effect: + activator, − inhibitor, compound 1 μM, 100% = activation with 1 μM forskolin; for EC50: activators, 1 μM forskolin; for effect on wild-type receptors: summary of Table II"}, "[3]": {"target": "T2, G551D-CFTR (CHO-G551D cells) (Homo sapiens, UniProt P13569, G551D)", "T2 construct": "expressed in transfected cells; host or cells: CHO (Chinese Hamster Ovary) cells, stably transfected", "T2 sequence (P13569 whole entry G551D)": "as the sequence (P13569 whole entry) above, with G551D counted along it", "assay": "125I iodide efflux, CHO cells expressing G551D mutated CFTR (CHO-G551D)", "assay_type": "cell-based", "details": "for IC50: 10 μM Fsk + 30 μM genistein; for effect on G551D mutated receptors: summary of Table II"}, "[4]": {"target": "mutated F508-CFTR (CF15 cells) (Homo sapiens, UniProt P13569, DEL508-508)", "sequence (P13569 with tags, fused parts or gaps DEL508-508)": "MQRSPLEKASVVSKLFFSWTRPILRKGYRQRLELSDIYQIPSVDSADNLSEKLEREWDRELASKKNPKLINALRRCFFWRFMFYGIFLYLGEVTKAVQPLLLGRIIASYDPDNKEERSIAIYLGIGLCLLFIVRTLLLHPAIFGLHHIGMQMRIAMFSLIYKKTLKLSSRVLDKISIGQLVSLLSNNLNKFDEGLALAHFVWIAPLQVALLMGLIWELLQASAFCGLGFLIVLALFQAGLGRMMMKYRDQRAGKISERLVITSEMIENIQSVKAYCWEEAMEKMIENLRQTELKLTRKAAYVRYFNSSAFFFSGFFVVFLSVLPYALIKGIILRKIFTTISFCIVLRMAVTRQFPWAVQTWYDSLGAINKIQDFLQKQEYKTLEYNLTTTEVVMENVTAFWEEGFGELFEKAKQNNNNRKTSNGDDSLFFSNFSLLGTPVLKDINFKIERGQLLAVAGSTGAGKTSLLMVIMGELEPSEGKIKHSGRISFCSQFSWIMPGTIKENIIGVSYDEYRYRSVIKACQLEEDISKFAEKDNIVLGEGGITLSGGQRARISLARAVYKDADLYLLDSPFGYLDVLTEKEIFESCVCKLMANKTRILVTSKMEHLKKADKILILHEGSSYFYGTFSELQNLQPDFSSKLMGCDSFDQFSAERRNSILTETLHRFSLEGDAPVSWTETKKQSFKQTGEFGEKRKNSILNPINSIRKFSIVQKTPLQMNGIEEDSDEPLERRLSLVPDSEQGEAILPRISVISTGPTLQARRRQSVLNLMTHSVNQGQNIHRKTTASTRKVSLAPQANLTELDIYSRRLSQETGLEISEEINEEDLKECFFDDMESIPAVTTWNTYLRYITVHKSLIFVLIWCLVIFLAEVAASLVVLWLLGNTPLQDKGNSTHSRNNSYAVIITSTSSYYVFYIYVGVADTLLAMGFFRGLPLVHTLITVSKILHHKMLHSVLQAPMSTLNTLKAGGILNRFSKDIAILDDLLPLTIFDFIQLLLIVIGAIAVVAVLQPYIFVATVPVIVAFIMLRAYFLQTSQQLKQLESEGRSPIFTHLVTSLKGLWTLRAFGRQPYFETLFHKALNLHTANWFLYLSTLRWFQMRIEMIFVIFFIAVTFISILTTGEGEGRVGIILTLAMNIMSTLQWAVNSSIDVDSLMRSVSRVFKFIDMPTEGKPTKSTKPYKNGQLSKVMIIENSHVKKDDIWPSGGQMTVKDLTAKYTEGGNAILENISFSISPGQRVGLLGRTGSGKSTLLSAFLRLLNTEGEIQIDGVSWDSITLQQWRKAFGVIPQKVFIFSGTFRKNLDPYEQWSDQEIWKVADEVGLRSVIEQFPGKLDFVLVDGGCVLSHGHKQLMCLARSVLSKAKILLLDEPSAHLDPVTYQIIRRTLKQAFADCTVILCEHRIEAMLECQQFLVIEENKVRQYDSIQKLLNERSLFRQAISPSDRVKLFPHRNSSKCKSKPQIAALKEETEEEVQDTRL", "assay": "iodide efflux, CF15 human nasal epithelial cells expressing mutated F508-CFTR", "details": "results not shown"}, "CFTR channel": {"target": "CFTR channel (Homo sapiens, UniProt P13569)", "sequence (P13569 whole entry)": "as the sequence (P13569 whole entry) above", "details": "read-out: IC50, concentration to inhibit 50% of the activity of the CFTR channel; cited from earlier work"}, "[5]": {"assay": "pKa evaluation in aqueous solution", "assay_type": "physicochemical", "method": "As an example, the pKa of this compound was evaluated at 4. This means that in an aqueous solution with a pH of 7, this compound is mainly in zwitterionic form, as in the case of highly diluted solutions such as those used for biological tests."}, "mice": {"system": "mice", "details": "at 7 days, 10 mg/kg injection; cited from earlier work"}, "[6]": {"system": "diarrhoea caused by the cholera toxin", "details": "mouse, in vivo; cited from earlier work"}, "[7]": {"details": "1 μM compound added to 1 μM Fsk"}, "[8]": {"details": "1 μM compound added to 10 μM Fsk + 30 μM genistein"}, "[9]": {"details": "1 μM compound added to 5 μM Fsk"}},
  "note": "Read-outs that look alike come from different tables or passages of the source.",
  "data": [
    {"smiles": "CCCN1C=CC2=NC(C)(C(=O)O)C(O)C(C)(O)N2C1=O", "note": "(centres unmarked) [Compound 2, 1-propylcytosine Adducts]", "values": [
      {"measurement": "IC50", "setting": "[1]", "result": 0.002, "unit": "µM"},
      {"measurement": "IC50", "setting": "[2]", "result": 0.002, "unit": "µM"},
      {"measurement": "IC50", "setting": "[3]", "result": 0.154, "unit": "µM"}
    ]},
    {"smiles": "CCCn1cnc2c1N=CN1C2=NC(C)(C(=O)O)C(O)C1(C)O", "note": "(mixture of isomers) [Compound 9, 9-propyladenine Adducts]", "values": [
      {"measurement": "effect on activation of wild-type CFTR (CHO-WT)", "setting": "[2]; [7]", "result": "activation"},
      {"measurement": "effect on activation of wild-type CFTR (CHO-WT)", "setting": "[2]; [8]", "result": "activation"},
      {"measurement": "Effect", "setting": "[2]", "result": "+ (In case of a significant increase, the compound was listed as an activator)"},
      {"measurement": "EC50", "setting": "[2]", "result": 2000, "unit": "nM"},
      {"measurement": "effect on wild-type receptors", "setting": "[2]", "result": "activator effect"},
      {"measurement": "effect on activation of mutated CFTR (CHO-G551D)", "setting": "[3]; [7]", "result": "no effect"},
      {"measurement": "effect on activation of mutated CFTR (CHO-G551D)", "setting": "[3]; [8]", "result": "activation"},
      {"measurement": "effect on G551D mutated receptors", "setting": "[3]", "result": "unable to activate"},
      {"measurement": "activation of ΔF508 mutated receptor", "setting": "[4]", "result": "can activate"}
    ]},
    {"smiles": "O=C(O)c1nn(Cc2ccc(Cl)cc2Cl)c2ccccc12", "note": "[lonidamine]", "values": [
      {"measurement": "IC50", "setting": "CFTR channel", "result": 58, "unit": "µM"}
    ]},
    {"smiles": "CCCn1cnc2c1N=CN1C2=N[C@](C)(C(=O)O)[C@H](O)[C@@]1(C)O", "note": "(racemic) [Compound 9b]", "values": [
      {"measurement": "Effect", "setting": "[2]", "result": "+ (In case of a significant increase, the compound was listed as an activator)"},
      {"measurement": "EC50", "setting": "[2]", "result": 3000, "unit": "nM"}
    ]},
    {"smiles": "CC1(C(=O)O)N=C2C=CC=CN2C(C)(O)C1O", "note": "(centres unmarked)", "values": [
      {"measurement": "pKa", "setting": "[5]; aqueous solution, aqueous solution at 25° C., read-out: pKa, carboxylic acid function", "result": "~2"},
      {"measurement": "pKa", "setting": "[5]; aqueous solution, aqueous solution at 25° C., read-out: pKa, imine function", "result": "~10"}
    ]},
    {"smiles": "C=CCn1cnc2c1N=CN1C2=NC(C)(C(=O)O)C(O)C1(C)O", "note": "(mixture of isomers) [Compound 10, 9-allyladenine Adducts]", "values": [
      {"measurement": "Effect", "setting": "[2]", "result": "+ (In case of a significant increase, the compound was listed as an activator)"},
      {"measurement": "EC50", "setting": "[2]", "result": 7500, "unit": "nM"}
    ]},
    {"smiles": "CC1(C(=O)O)N=C2c3ncn([C@H]4CC(O)[C@@H](CO)O4)c3N=CN2C(C)(O)C1O", "note": "(stereo in doubt) [Compound 1, 2′-deoxyadenosine Adducts]", "values": [
      {"measurement": "IC50", "setting": "[1]", "result": "9.3e-05", "unit": "µM"},
      {"measurement": "effect on activation of wild-type CFTR (CHO-WT)", "setting": "[2]; [7]", "result": "inhibition"},
      {"measurement": "effect on activation of wild-type CFTR (CHO-WT)", "setting": "[2]; [9]", "result": "inhibition"},
      {"measurement": "effect on activation of wild-type CFTR (CHO-WT)", "setting": "[2]; [8]", "result": "inhibition"},
      {"measurement": "IC50", "setting": "[2]", "result": "7.1e-05", "unit": "µM"},
      {"measurement": "effect on wild-type receptors", "setting": "[2]", "result": "effectively antagonises the action of the forskolin and genistein activators"},
      {"measurement": "effect on activation of mutated CFTR (CHO-G551D)", "setting": "[3]; [7]", "result": "no effect"},
      {"measurement": "effect on activation of mutated CFTR (CHO-G551D)", "setting": "[3]; [9]", "result": "no effect"},
      {"measurement": "effect on activation of mutated CFTR (CHO-G551D)", "setting": "[3]; [8]", "result": "inhibition"},
      {"measurement": "IC50", "setting": "[3]", "result": 0.043, "unit": "µM"},
      {"measurement": "effect on G551D mutated receptors", "setting": "[3]", "result": "effectively antagonises the action of the forskolin and genistein activators"}
    ]},
    {"smiles": "Cc1nc2cccc[n+]2c(C)c1O", "note": "[6 (chlorhydrate)]", "values": [
      {"measurement": "IC50", "setting": "[2]", "result": 0.007, "unit": "µM"}
    ]},
    {"smiles": "C[C@]1(C(=O)O)N=C2c3nc[nH]c3N=CN2[C@](C)(O)[C@H]1O", "note": "(single isomer, unassigned) [Compound 5a]", "values": [
      {"measurement": "IC50", "setting": "[2]", "result": 10, "unit": "µM"}
    ]},
    {"smiles": "CC1(C(=O)O)N=C2c3nc[nH]c3N=CN2C(C)(O)C1O", "note": "(centres unmarked) [Compound 5, Adenine Adducts]", "values": [
      {"measurement": "IC50", "setting": "[1]", "result": 12, "unit": "µM"},
      {"measurement": "IC50", "setting": "[2]", "result": 6, "unit": "µM"},
      {"measurement": "IC50", "setting": "[3]", "result": 110, "unit": "µM"}
    ]},
    {"smiles": "CCCn1cnc2c1N=CN1C2=N[C@](C)(C(=O)O)[C@@H](O)[C@@]1(C)O", "note": "(racemic) [Compound 9a]", "values": [
      {"measurement": "EC50", "setting": "[1]", "result": 2000, "unit": "nM"},
      {"measurement": "Effect", "setting": "[2]", "result": "+ (In case of a significant increase, the compound was listed as an activator)"},
      {"measurement": "EC50", "setting": "[2]", "result": 2000, "unit": "nM"}
    ]},
    {"smiles": "CCCN1C=CC2=N[C@](C)(C(=O)O)[C@@H](O)[C@@](C)(O)N2C1=O", "note": "[Compound 2a]", "values": [
      {"measurement": "IC50", "setting": "[2]", "result": 0.002, "unit": "µM"}
    ]},
    {"smiles": "CC1(C(=O)O)N=C2C(O)=CC=CN2C(C)(O)C1O", "note": "(mixture of isomers) [Compound 3, 2-amino-3-hydroxypyridine Adducts]", "values": [
      {"measurement": "IC50", "setting": "[1]", "result": 11, "unit": "µM"},
      {"measurement": "IC50", "setting": "[2]", "result": 4, "unit": "µM"},
      {"measurement": "IC50", "setting": "[3]", "result": 36, "unit": "µM"}
    ]},
    {"smiles": "Cc1nc2cccc[n+]2c(C)c1[O-]", "note": "[Compound 6, 2-aminopyridine Derivative]", "values": [
      {"measurement": "IC50", "setting": "[1]", "result": 0.005, "unit": "µM"},
      {"measurement": "IC50", "setting": "[2]", "result": 0.005, "unit": "µM"},
      {"measurement": "IC50", "setting": "[3]", "result": 0.09, "unit": "µM"},
      {"measurement": "pKa", "setting": "[5]; read-out: pKa", "result": 4}
    ]},
    {"smiles": "CCCN1C=CC2=N[C@](C)(C(=O)O)[C@H](O)[C@@](C)(O)N2C1=O", "note": "[Compound 2b]", "values": [
      {"measurement": "IC50", "setting": "[2]", "result": 0.0015, "unit": "µM"}
    ]},
    {"smiles": "C[n+]1cn([C@@H]2O[C@H](CO)[C@@H](O)[C@H]2O)c2nc(N)nc([O-])c21", "note": "[Compound 8, 7-methylguanosine]", "values": [
      {"measurement": "IC50", "setting": "[1]", "result": 11, "unit": "µM"},
      {"measurement": "IC50", "setting": "[2]", "result": 3.5, "unit": "µM"},
      {"measurement": "IC50", "setting": "[3]", "result": 15, "unit": "µM"}
    ]},
    {"smiles": "CCC1(C(=O)O)N=C2C=CC=CN2C(O)(CC)C1O", "note": "(mixture of isomers) [Compound 11]", "values": [
      {"measurement": "IC50", "setting": "[2]", "result": 18, "unit": "µM"}
    ]},
    {"smiles": "C[N+](C)(C)CC(=O)O", "note": "[Betaine, reference compound]", "values": [
      {"measurement": "IC50", "setting": "[2]", "result": 96, "unit": "µM"}
    ]},
    {"smiles": "O=C(O)c1ccc(/C=C2\\SC(=S)N(c3cccc(C(F)(F)F)c3)C2=O)cc1", "note": "[CFTRinh-172]", "values": [
      {"measurement": "toxicity in mice", "setting": "mice", "result": "absence of toxicity"},
      {"measurement": "reduction of diarrhoea caused by the cholera toxin", "setting": "[6]", "result": "more than 90%"},
      {"measurement": "IC50", "setting": "CFTR channel", "result": 0.2, "unit": "µM"}
    ]},
    {"smiles": "C[C@]1(C(=O)O)N=C2c3nc[nH]c3N=CN2[C@](C)(O)[C@H]1O", "note": "(single isomer, unassigned) [Compound 5b]", "values": [
      {"measurement": "IC50", "setting": "[2]", "result": 3, "unit": "µM"}
    ]}
  ]
}
